pIC50: −log10 of the molar value. Positions of bridges follow the written chain, without caps; N, C: chain ends. Non-standard residues stand in square brackets, D forms with d. Residues, ends and D or L forms follow the SMILES beside them.
Experiments:
[1] = molecular target: Somatostatin receptor type 5 (Homo sapiens, UniProt P35346); test: Inhibition of [125I](Leu8,DTrp22,Tyr25)-SRIF28 binding to human sst5
[2] = molecular target: Somatostatin receptor type 1 (Homo sapiens, UniProt P30872); test: Inhibition of [125I](Leu8,DTrp22,Tyr25)-SRIF28 binding to human sst1
Chain of Somatostatin receptor type 1 (P30872 whole entry): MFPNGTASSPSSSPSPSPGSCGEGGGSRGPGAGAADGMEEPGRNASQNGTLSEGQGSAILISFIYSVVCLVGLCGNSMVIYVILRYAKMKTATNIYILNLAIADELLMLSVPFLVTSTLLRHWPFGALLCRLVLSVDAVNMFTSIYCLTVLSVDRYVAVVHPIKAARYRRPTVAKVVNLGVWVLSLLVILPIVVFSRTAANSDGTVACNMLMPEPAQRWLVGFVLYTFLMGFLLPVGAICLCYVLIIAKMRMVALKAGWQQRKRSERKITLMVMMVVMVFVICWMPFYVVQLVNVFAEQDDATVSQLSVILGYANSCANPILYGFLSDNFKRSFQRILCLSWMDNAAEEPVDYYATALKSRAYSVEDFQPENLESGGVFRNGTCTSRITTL

[3] = molecular target: Somatostatin receptor type 3 (Homo sapiens, UniProt P32745); test: Inhibition of [125I](Leu8,DTrp22,Tyr25)-SRIF28 binding to human sst3
Chain of Somatostatin receptor type 3 (P32745 whole entry): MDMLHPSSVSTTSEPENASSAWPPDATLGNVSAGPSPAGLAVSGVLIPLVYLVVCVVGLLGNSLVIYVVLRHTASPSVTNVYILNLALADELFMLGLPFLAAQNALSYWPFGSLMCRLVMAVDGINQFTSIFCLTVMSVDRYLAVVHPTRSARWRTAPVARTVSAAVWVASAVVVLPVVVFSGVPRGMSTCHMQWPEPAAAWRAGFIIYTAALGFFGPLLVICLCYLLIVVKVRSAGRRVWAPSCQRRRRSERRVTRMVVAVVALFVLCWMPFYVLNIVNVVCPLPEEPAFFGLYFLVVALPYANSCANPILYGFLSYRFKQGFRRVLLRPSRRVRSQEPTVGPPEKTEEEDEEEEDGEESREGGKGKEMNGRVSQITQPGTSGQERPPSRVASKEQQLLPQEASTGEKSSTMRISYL

[4] = molecular target: Somatostatin receptor type 2 (Homo sapiens, UniProt P30874); test: Inhibition of [125I](Leu8,DTrp22,Tyr25)-SRIF28 binding to human sst2
Chain of Somatostatin receptor type 2 (P30874 whole entry): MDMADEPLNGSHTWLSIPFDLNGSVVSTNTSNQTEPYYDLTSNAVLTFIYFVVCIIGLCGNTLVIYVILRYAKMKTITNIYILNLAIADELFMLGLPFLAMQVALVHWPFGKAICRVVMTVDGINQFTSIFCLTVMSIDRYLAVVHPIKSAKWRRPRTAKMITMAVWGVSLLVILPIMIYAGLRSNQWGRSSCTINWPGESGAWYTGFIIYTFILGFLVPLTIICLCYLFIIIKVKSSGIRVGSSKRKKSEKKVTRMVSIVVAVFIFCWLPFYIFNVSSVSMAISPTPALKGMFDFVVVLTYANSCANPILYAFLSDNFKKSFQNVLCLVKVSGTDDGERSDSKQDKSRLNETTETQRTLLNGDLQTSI

[5] = molecular target: Somatostatin receptor type 4 (Homo sapiens, UniProt P31391); test: Inhibition of [125I](Leu8,DTrp22,Tyr25)-SRIF28 binding to human sst4
Chain of Somatostatin receptor type 4 (P31391 whole entry): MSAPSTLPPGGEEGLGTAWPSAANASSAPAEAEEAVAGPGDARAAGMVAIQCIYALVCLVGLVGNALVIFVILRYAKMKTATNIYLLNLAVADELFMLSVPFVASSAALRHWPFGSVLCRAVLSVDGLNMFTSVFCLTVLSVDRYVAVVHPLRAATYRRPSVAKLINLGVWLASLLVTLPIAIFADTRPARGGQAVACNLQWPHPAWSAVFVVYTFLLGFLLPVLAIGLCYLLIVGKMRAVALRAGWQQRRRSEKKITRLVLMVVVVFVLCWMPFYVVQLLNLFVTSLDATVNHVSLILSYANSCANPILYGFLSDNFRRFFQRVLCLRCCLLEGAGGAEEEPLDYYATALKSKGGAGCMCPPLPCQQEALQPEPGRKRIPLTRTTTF

Chain of Somatostatin receptor type 5 (P35346 whole entry): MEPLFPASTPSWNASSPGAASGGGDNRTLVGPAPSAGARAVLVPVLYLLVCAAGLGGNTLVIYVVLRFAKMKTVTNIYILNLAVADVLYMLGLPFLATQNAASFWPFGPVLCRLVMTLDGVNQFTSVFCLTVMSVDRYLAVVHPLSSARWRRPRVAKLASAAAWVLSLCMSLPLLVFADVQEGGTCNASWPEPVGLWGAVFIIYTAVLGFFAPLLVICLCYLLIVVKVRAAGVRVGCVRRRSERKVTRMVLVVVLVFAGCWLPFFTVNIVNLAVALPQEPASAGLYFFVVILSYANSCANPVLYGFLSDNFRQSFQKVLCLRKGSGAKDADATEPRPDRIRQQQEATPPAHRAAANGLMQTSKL

Row | Compound | pIC50 [1] | pIC50 [2] | pIC50 [3] | pIC50 [4] | pIC50 [5]
1 | C[C@@H]1NC(=O)[C@@H](NC(=O)[C@H](N)Cc2ccccc2)CSSC[C@@H](C(=O)N[C@H](C(N)=O)[C@@H](C)O)NC(=O)[C@H]([C@@H](C)O)NC(=O)[C@H](CCCCN)NC(=O)[C@@H](Cc2c[nH]c3ccccc23)NC1=O | 6.80 | < 6.00 | 6.27 | 8.44 | < 6.00
2 | C[C@@H](O)[C@@H]1NC(=O)[C@H](CCCCN)NC(=O)[C@@H](Cc2c[nH]c3ccccc23)NC(=O)[C@H](Cc2ccccc2)NC(=O)[C@@H](N)CSSC[C@@H](C(=O)O)NC1=O (H-CF[dW]KTC-OH; disulfide 1-6) | < 6.00 | < 6.00 | < 6.00 | 6.42 | < 6.00
3 | C[C@@H](O)[C@H](NC(=O)[C@@H]1CSSC[C@H](NC(=O)[C@H](Cc2ccccc2)NC(N)=O)C(=O)N[C@@H](Cc2ccc(NC(N)=O)cc2)C(=O)N[C@H](Cc2c[nH]c3ccccc23)C(=O)N[C@@H](CCCCN)C(=O)N[C@@H]([C@@H](C)O)C(=O)N1)C(N)=O | 6.96 | < 6.00 | 6.03 | 8.12 | –
4 | C[C@@H](O)[C@H](NC(=O)[C@@H]1CSSC[C@H](NC(=O)[C@@H](Cc2ccccc2)NC(N)=O)C(=O)N[C@@H](Cc2ccc(NC(N)=O)cc2)C(=O)N[C@H](Cc2c[nH]c3ccccc23)C(=O)N[C@@H](CCCCN)C(=O)N[C@@H]([C@@H](C)O)C(=O)N1)C(N)=O | 7.11 | < 6.00 | 6.68 | 8.21 | –
5 | C[C@@H](O)[C@H](NC(=O)[C@@H]1CSSC[C@H](NC(=O)[C@H](N)Cc2ccccc2)C(=O)N[C@@H](Cc2ccccc2)C(=O)N[C@H](Cc2c[nH]c3ccccc23)C(=O)N[C@@H](CCCCN)C(=O)N[C@@H]([C@@H](C)O)C(=O)N1)C(N)=O | – | < 6.00 | 7.42 | 8.66 | < 5.00
6 | CONC(=O)Nc1ccc(C[C@@H]2NC(=O)[C@@H](NC(=O)[C@@H](Cc3ccccc3)NC(N)=O)CSSC[C@@H](C(=O)N[C@H](C(N)=O)[C@@H](C)O)NC(=O)[C@H]([C@@H](C)O)NC(=O)[C@H](CCCCN)NC(=O)[C@@H](Cc3c[nH]c4ccccc34)NC2=O)cc1 | 6.27 | < 6.00 | 6.02 | 8.51 | < 6.00
